Results reported in the NIST ThermoML archive (doi:10.1007/s10765-011-1087-7).
± gives the expanded uncertainty stated by the source.

How the values were obtained:
[1] = xn = mol fraction of the nth substance listed; conditions: 101 kPa, Liquid; for speed of sound: Pulse-echo method
[2] = refractive index (Na D-line) (dimensionless); xn = mol fraction of the nth substance listed; conditions: 101 kPa, Liquid

Clc1ccc(Cl)c(Cl)c1 [1,2,4-trichlorobenzene] + CCCCCCC(C)O
Conditions	mass density, [1] [kg/m3]	refractive index, [2]	speed of sound, [1] [m/s]	viscosity, [1] [mPa·s]
298.15 K, x1 = 0.0762	863.97 ± 0.5	1.4309 ± 0.0012	1301.7 ± 1.3	5.912 ± 0.18
298.15 K, x1 = 0.1303	896.31 ± 0.43	1.4366 ± 0.0012	1296.7 ± 1.3	5.452 ± 0.17
298.15 K, x1 = 0.2045	939.57 ± 0.35	1.4436 ± 0.0012	1290.1 ± 1.3	4.912 ± 0.16
298.15 K, x1 = 0.2713	977.28 ± 0.28	1.4501 ± 0.0012	1283.7 ± 1.3	4.455 ± 0.15
298.15 K, x1 = 0.3461	1018.61 ± 0.28	1.4569 ± 0.0012	1278 ± 1.3	3.981 ± 0.13
298.15 K, x1 = 0.4173	1057.62 ± 0.35	1.4631 ± 0.0012	1273.2 ± 1.3	3.575 ± 0.12
298.15 K, x1 = 0.4857	1095.63 ± 0.43	1.4698 ± 0.0012	1269.8 ± 1.2	3.223 ± 0.11
298.15 K, x1 = 0.5454	1129.39 ± 0.5	1.4758 ± 0.0012	1267 ± 1.2	2.955 ± 0.099
298.15 K, x1 = 0.6115	1167.72 ± 0.58	1.4834 ± 0.0012	1264.2 ± 1.2	2.699 ± 0.091
298.15 K, x1 = 0.6798	1209.26 ± 0.66	1.4919 ± 0.0012	1261.9 ± 1.2	2.462 ± 0.084
298.15 K, x1 = 0.7466	1252.54 ± 0.75	1.5009 ± 0.0012	1259.9 ± 1.2	2.281 ± 0.078
298.15 K, x1 = 0.8183	1302 ± 0.86	1.5119 ± 0.0012	1259.2 ± 1.2	2.118 ± 0.073
298.15 K, x1 = 0.8713	1341.45 ± 0.94	1.521 ± 0.0012	1260.4 ± 1.2	2.035 ± 0.07
298.15 K, x1 = 0.9361	1392.95 ± 1.1	1.534 ± 0.0012	1264.2 ± 1.2	1.945 ± 0.067
298.15 K, x1 = 1	1448.41 ± 1.1	1.548 ± 0.0012	1272 ± 1.2	1.926 ± 0.067
303.15 K, x1 = 0.0762	860.11 ± 0.5	1.4285 ± 0.0012	1283.9 ± 1.3	4.79 ± 0.16
303.15 K, x1 = 0.1303	892.4 ± 0.44	1.4337 ± 0.0012	1279.1 ± 1.3	4.507 ± 0.15
303.15 K, x1 = 0.2045	935.51 ± 0.36	1.4406 ± 0.0012	1273 ± 1.3	4.124 ± 0.14
303.15 K, x1 = 0.2713	973.11 ± 0.29	1.4469 ± 0.0012	1266.9 ± 1.3	3.783 ± 0.12
303.15 K, x1 = 0.3461	1014.26 ± 0.27	1.4539 ± 0.0012	1261.6 ± 1.3	3.433 ± 0.11
303.15 K, x1 = 0.4173	1053.06 ± 0.34	1.4607 ± 0.0012	1256.9 ± 1.2	3.12 ± 0.11
303.15 K, x1 = 0.4857	1090.83 ± 0.42	1.4676 ± 0.0012	1253.5 ± 1.2	2.849 ± 0.096
303.15 K, x1 = 0.5454	1124.39 ± 0.49	1.474 ± 0.0012	1250.5 ± 1.2	2.632 ± 0.089
303.15 K, x1 = 0.6115	1162.51 ± 0.57	1.4818 ± 0.0012	1248 ± 1.2	2.405 ± 0.082
303.15 K, x1 = 0.6798	1203.8 ± 0.65	1.4905 ± 0.0012	1245.6 ± 1.2	2.205 ± 0.076
303.15 K, x1 = 0.7466	1246.93 ± 0.74	1.4999 ± 0.0012	1244.1 ± 1.2	2.045 ± 0.071
303.15 K, x1 = 0.8183	1296.19 ± 0.84	1.511 ± 0.0012	1243.5 ± 1.2	1.909 ± 0.066
303.15 K, x1 = 0.8713	1335.49 ± 0.93	1.5202 ± 0.0012	1244.9 ± 1.2	1.821 ± 0.063
303.15 K, x1 = 0.9361	1386.92 ± 1	1.5329 ± 0.0012	1248.7 ± 1.2	1.769 ± 0.062
303.15 K, x1 = 1	1442.43 ± 1.1	1.546 ± 0.0012	1256.4 ± 1.2	1.76 ± 0.061
308.15 K, x1 = 0.0762	855.92 ± 0.51	1.4271 ± 0.0012	1266.3 ± 1.3	3.886 ± 0.13
308.15 K, x1 = 0.1303	887.97 ± 0.45	1.4325 ± 0.0012	1261.9 ± 1.3	3.674 ± 0.12
308.15 K, x1 = 0.2045	930.81 ± 0.37	1.4396 ± 0.0012	1255.8 ± 1.3	3.413 ± 0.11
308.15 K, x1 = 0.2713	968.5 ± 0.3	1.4459 ± 0.0012	1250.3 ± 1.3	3.169 ± 0.11
308.15 K, x1 = 0.3461	1009.82 ± 0.26	1.4525 ± 0.0012	1244.9 ± 1.2	2.915 ± 0.098
308.15 K, x1 = 0.4173	1048.71 ± 0.34	1.4591 ± 0.0012	1240.3 ± 1.2	2.674 ± 0.091
308.15 K, x1 = 0.4857	1086.14 ± 0.41	1.4658 ± 0.0012	1237.1 ± 1.2	2.456 ± 0.084
308.15 K, x1 = 0.5454	1119.57 ± 0.48	1.4718 ± 0.0012	1234.6 ± 1.2	2.296 ± 0.079
308.15 K, x1 = 0.6115	1157.41 ± 0.56	1.4792 ± 0.0012	1232 ± 1.2	2.117 ± 0.073
308.15 K, x1 = 0.6798	1198.89 ± 0.64	1.4877 ± 0.0012	1229.9 ± 1.2	1.961 ± 0.068
308.15 K, x1 = 0.7466	1241.6 ± 0.73	1.4969 ± 0.0012	1228.4 ± 1.2	1.827 ± 0.064
308.15 K, x1 = 0.8183	1290.6 ± 0.83	1.5078 ± 0.0012	1228 ± 1.2	1.725 ± 0.06
308.15 K, x1 = 0.8713	1329.97 ± 0.92	1.517 ± 0.0012	1229.3 ± 1.2	1.666 ± 0.058
308.15 K, x1 = 0.9361	1381.4 ± 1	1.5295 ± 0.0012	1233.4 ± 1.2	1.628 ± 0.057
308.15 K, x1 = 1	1436.45 ± 1.1	1.543 ± 0.0012	1240.9 ± 1.2	1.617 ± 0.057
